Laboratory results taken from patent US6552083B1, “Agents inhibiting chronic rejection reactions after organ transplantation” (Kissei Pharmaceutical Co., Ltd., priority 1999, dated 2003).

Columns and labels:
[1] = system: coronary arteries of transplanted heart; experiment: Test for confirming inhibitory activity against intimal thickening in transplant organ after organ transplantation (mouse heart transplantation model); type: in vivo, mice (DBA/2 donor, B10D2 recipient)
Description: (§1) In a transplantation test, 4 to 6-week-old DBA/2 male mice each weighing 20 to 25 g (available from Charles River Laboratories) were used an donor animals, and 4 to 6-week-old B10D2 male mice each weighing 20 to 25 g (ava from Charles River Laboratories) were used as recipient animals. From three days before testing, mice in a control group were fed on a standard diet, and mice in a drug-treated group were given a 0.25% or 0.5% tranilast-containing diet (CE-2). On the day of testing, the heart was excised from a donor mouse and transplanted into the abdomen of a recipient mouse in accordance with the procedures described in the literature (Science, vol. 255, pp. 1125-1127 (1992)). Fourteen and twenty-eight days from the transplantation, the transplanted heart was excised and placed in formalin. Three specimens (thickness: […]) were sliced from different sites of the excised heart. Each slice was stained with Elastica van Geison stain, and the coronary arteries were observed under a microscope to calculate a vascular stenosis ratio according to the following equation: Vascular stenosis ratio (%)=[(area inside of elastica −lumen area)/area inside of elastica]×100

transplanted heart = experiment: Test for evaluating rejection in transplant organ after organ transplantation (infiltration of lymphocytes into the tissue); type: in vivo, mice (DBA/2 donor, B10D2 recipient)
Description: as §1, with “The degree” for “Vascular stenosis ratio (%)=[(area inside”, “rejection in the hearts transplanted to and excited from the recipient mice in the same manner as in Example 1 was evaluated in terms” for “elastica −lumen area)/area inside”, “the degree of infiltration of lymphocytes into the tissue in accordance with the Working Formation of the International Society for Heart and Lung Transplantation and with the following criteria. 0 . . . No infiltration of lymphocytes into the tissue was seen. 1 . . . Slight infiltration of lymphocytes into the tissue was observed. 2 . . . Medium infiltration of lymphocytes into the tissue was observed. 3 . . . Severe infiltration of lymphocytes into the tissue was observed.” for “elastica]×100”

[2] = 0.25% or 0.5% tranilast-containing diet, mouse heart transplantation

`COc1ccc(/C=C/C(=O)Nc2ccccc2C(=O)O)cc1OC` [Tranilast, N-(3,4-dimethoxycinnamoyl)anthranililc acid] was tested, and the “Inhibition of vascular thickening in a transplanted heart (result in words)” value [1, 2] was “dose-dependently significantly inhibits vascular thickening in a transplanted heart”, the “Vascular Stenosis Ratio (%)” value ([1]; 0.25% tranilast-containing feed from 3 days before transplantation, 14-days post-operation, control group 70.3) was 55.5% and the “Vascular Stenosis Ratio (%)” value ([1]; 0.25% tranilast-containing feed, 28-days post-operation, control group 73.3) was 61.9%. The “Vascular Stenosis Ratio (%)” value ([1]; 0.5% tranilast-containing feed, 14-days post-operation, control group 70.3) was 45.5%, the “Vascular Stenosis Ratio (%)” value ([1]; 0.5% tranilast-containing feed, 28-days post-operation, control group 73.3) was 47.7% and the “Infiltration of lymphocytes into the tissue (result in words)” value (transplanted heart; [2]) was “alleviates infiltration of lymphocytes into the tissue”. For the same compound, the Degree of rejection (transplanted heart; score 0 (no) to 3 (severe) lymphocyte infiltration, 0.25% tranilast-containing feed, 14-days post-operation, control group 2.07) was 1.70, the Degree of rejection (transplanted heart; score 0 to 3, 0.25% tranilast-containing feed, 28-days post-operation, control group 2.88) was 2.38 and the Degree of rejection (transplanted heart; score 0 to 3, 0.5% tranilast-containing feed, 14-days post-operation, control group 2.07) was 1.80. For the same compound, the Degree of rejection (transplanted heart; score 0 to 3, 0.5% tranilast-containing feed, 28-days post-operation, control group 2.88) was 2.08.
